Data as given in US11760754B2, “Heterocyclic mitochondrial activity inhibitors and uses thereof” (UNIVERSITÉ DE MONTRÉAL, priority 2017, dated 2023).
pEC50: −log10 of the molar value. Where two headings read alike, the source gives them in different places.

Legend:
[1] = test system: OCI-AML3 cells; test: OCI-AML3 cell growth inhibition, dose-response viability assay (CellTiterGlo); assay type: cell-based; details: read-out: AML-3 EC50
Method in brief: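 OCI-AML3 cells seeded, then exposed to compound in serial dilutions from 10 μM to 0.5 nM, in duplicate or quadruplicate. Viability read by CellTiter-Glo.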

[2] = test system: MLL-AF9 cells; test: MLL-AF9 leukemia cell growth inhibition, dose-response viability assay (CellTiterGlo); assay type: cell-based, murine; details: read-out: MLL-AF9 EC50
Method in brief: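 Murine MLL-AF9 leukemia cells (female, MSCV MLL-AF9 IRES Puro transduced) were treated with serial compound dilutions from 10 μM to 0.5 nM in duplicates or quadruplicates. Viability read by CellTiterGlo dose-response.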

| pEC50 ([1]; Homo sapiens, OCI-AML-3, 144 h) | pEC50 ([2]; Mus musculus, MLL-AF9, 120 h) | Compound | pEC50 ([1]; OCI-AML3 cells, 6 days of culture, CellTiterGlo) | pEC50 ([2]; MLL-AF9 cells, 5 days of culture, CellTiterGlo) |
| --- | --- | --- | --- | --- |
| 6.00 to 6.30 | 6.30 to 7.00 | O=[N+]([O-])c1ccccc1/C=C/c1nc(COc2ccc(CCCCn3ccnn3)cc2)co1 [Compound 42, (E)-4-((4-(4-(1H-1,2,3-triazol-1-yl)butyl)phenoxy)methyl)-2-(2-nitrostyryl)oxazole] |  |  |
| 5.00 to 6.00 | 6.30 to 7.00 | Fc1ccc2cc(-c3nc(COc4ccc(CCCCn5ccnn5)cc4)co3)sc2c1 [Compound 143, 4-((4-(4-(1H-1,2,3-triazol-1-yl)butyl)phenoxy)methyl)-2-(6-fluorobenzo[b]thiophen-2-yl)oxazole] |  |  |
| 5.00 to 6.00 | 6.00 to 6.30 | C#Cc1ccc(/C=C/c2nc(COc3ccc(CCCCn4ccnn4)cc3)co2)cc1 [Compound 64, (E)-4-((4-(4-(1H-1,2,3-triazol-1-yl)butyl)phenoxy)methyl)-2-(4-ethynylstyryl)oxazole] |  |  |
| 6.00 to 6.30 | 6.30 to 7.00 | CN(C)C(=O)OCCc1cn(CCCCc2ccc(OCc3coc(/C=C/c4ccc(C(F)(F)F)cc4)n3)cc2)nn1 [Compound 68, (E)-2-(1-(4-(4-((2-(4-(trifluoromethyl)styryl)oxazol-4-yl)methoxy)phenyl)butyl)-1H-1,2,3-triazol-4-yl)ethyl dimethylcarbamate] |  |  |
| 6.00 to 6.30 | 6.30 to 7.00 | C#CCNC(=O)c1ccc(/C=C/c2nc(COc3ccc(CCCCn4ccnn4)cc3)co2)cc1 [Compound 59, (E)-4-(2-(4-((4-(4-(1H-1,2,3-triazol-1-yl)butyl)phenoxy)methyl)oxazol-2-yl)vinyl)-N-(prop-2-yn-1-yl)benzamide] |  |  |
| 5.00 to 6.00 | 6.30 to 7.00 | Fc1cc(C(F)(F)F)ccc1/C=C/c1nc(COc2ccc(CCCCn3cnnn3)cc2)co1 [Compound 90, (E)-4-((4-(4-(1H-tetrazol-1-yl)butyl)phenoxy)methyl)-2-(2-fluoro-4-(trifluoromethyl)styryl) oxazole] |  |  |
| 5.00 to 6.00 | 6.00 to 6.30 | O=C(CCCn1ccnn1)c1ccc(OCc2coc(/C=C/c3ccc(OC(F)(F)F)cc3)n2)cc1 [Compound 18, (E)-4-(1H-1,2,3-triazol-1-yl)-1-(4-((2-(4-(trifluoromethoxy)styryl)oxazol-4-yl)methoxy)phenyl)butan-1-one] |  |  |

The remaining lines, values behind:

| Compound | pEC50 ([1]; Homo sapiens, OCI-AML-3, 144 h) | pEC50 ([2]; Mus musculus, MLL-AF9, 120 h) | pEC50 ([1]; OCI-AML3 cells, 6 days of culture, CellTiterGlo) | pEC50 ([2]; MLL-AF9 cells, 5 days of culture, CellTiterGlo) |
| --- | --- | --- | --- | --- |
| Fc1cc(C(F)(F)F)ccc1/C=C/c1nc(COc2ccc(CCCCc3ccncc3)cc2)co1 [Compound 104, (E)-2-(2-fluoro-4-(trifluoromethyl)styryl)-4-((4-(4-(pyridin-4-yl)butyl)phenoxy)methyl)oxazole] | 5.00 to 6.00 | 5.00 to 6.00 |  |  |
| Fc1cc(Br)ccc1/C=C/c1nc(COc2ccc(CCCCn3ccnn3)cc2)co1 [Compound 3A, (E)-((4-(4-(1H-1,2,3-triazol-1-yl)butyl)phenoxy)methyl)-2-(4-bromo-2-fluorostyryl)oxazole] |  |  | > 7.30 | > 7.30 |
| CC(C)NC(=O)OCCc1cn(CCCCc2ccc(OCc3coc(/C=C/c4ccc(C(F)(F)F)cc4F)n3)cc2)nn1 [Compound 98, (E)-2-(1-(4-(4-((2-(2-fluoro-4-(trifluoromethyl)styryl)oxazol-4-yl)methoxy)phenyl)butyl)-1H-1,2,3-triazol-4-yl)ethyl isopropylcarbamate] | 6.30 to 7.00 | 7.00 to 7.30 |  |  |
| Fc1cc(C(F)(F)F)ccc1/C=C/c1nc(COc2ccc(CCCCc3nccs3)cc2)co1 [Compound 107, (E)-2-(2-fluoro-4-(trifluoromethyl)styryl)-4-((4-(4-(thiazol-2-yl)butyl)phenoxy)methyl) oxazole] | 5.00 to 6.00 | 5.00 to 6.00 |  |  |
| Fc1cc(C(F)(F)F)ccc1/C=C/c1nc(CSc2ccc(CCCn3ccnn3)cc2)co1 [Compound 132, (E)-4-(((4-(3-(1H-1,2,3-triazol-1-yl)propyl)phenyl)thio)methyl)-2-(2-fluoro-4-(trifluoromethyl)styryl)oxazole] | 5.00 to 6.00 | 6.00 to 6.30 |  |  |
| O=C(Nc1ccc(C(F)(F)F)cc1[N+](=O)[O-])c1coc(COc2ccc(CCCCn3ccnn3)cc2)n1 [Compound 78, 2-((4-(4-(1H-1,2,3-triazol-1-yl)butyl)phenoxy)methyl)-N-(2-nitro-4-(trifluoromethyl)phenyl)oxazole-4-carboxamide] | 5.00 to 6.00 | < 5.00 |  |  |
